The experiment has as its target T1, human PPARα receptor (Homo sapiens, UniProt Q07869).
T1 construct: expressed in transfected cells
T1 sequence (Q07869 167-468): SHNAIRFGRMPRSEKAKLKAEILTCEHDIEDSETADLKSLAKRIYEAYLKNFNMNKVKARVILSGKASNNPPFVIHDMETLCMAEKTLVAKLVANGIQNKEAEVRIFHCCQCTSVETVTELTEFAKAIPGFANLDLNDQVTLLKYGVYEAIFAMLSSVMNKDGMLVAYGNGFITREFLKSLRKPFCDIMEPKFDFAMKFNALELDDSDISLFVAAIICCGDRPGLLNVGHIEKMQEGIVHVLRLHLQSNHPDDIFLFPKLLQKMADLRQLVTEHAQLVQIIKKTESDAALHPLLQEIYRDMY
In words: Cellular transactivation assay (GAL4-PPARα chimera, luciferase reporter). In kind it is cell-based. To be noted: CHO cells stably expressing GAL4-PPARα chimera (human PPARα ligand binding domain) and luciferase reporter; 6 h stimulation. The source says: A cellular assay is used to identify activators of the peroxisome proliferator-activated receptor alpha (PPAR-alpha).
Since mammalian cells contain different endogenous nuclear receptors which may complicate an unambiguous interpretation of the results, an established chimera system is used in which the ligand binding domain of the human PPARα receptor is fused to the DNA binding domain of the yeast transcription factor GAL4. The resulting GAL4-PPARα chimera is co-transfected and stably expressed in CHO cells having a reporter construct.
The GAL4-PPARα expression construct contains the ligand binding domain of PPARα (amino acids 167-468) which is PCR-amplified and cloned into the vector pcDNA3.1. This vector already contains the GAL4 DNA binding domain (amino acids 1-147) of the vector pFC2-dbd (Stratagene). The reporter construct, which contains five copies of the GAL4 binding site upstream of a thymidine kinase promoter, expresses firefly luciferase (Photinus pyralis) following activation and binding of GAL4-PPARα.
The day before the test, CHO (Chinese hamster ovary) cells which stably express the GAL4-PPARα chimera described above and the luciferase reporter gene construct are plated in medium (Optimem, GIBCO), 2% activated carbon-purified fetal calf serum (Hyclone), 1.35 mM sodium pyruvate (GIBCO), 0.2% sodium bicarbonate (GIBCO) with 1×10^3 cells in 96-well microtiter plates and kept in a cell incubator (96% atmospheric humidity, 5% v/v CO2, 37° C.). On the day of the test, the substances to be tested are taken up in the medium mentioned above but without added calf serum) and added to the cells. After a stimulation period of 6 h, the luciferase activity is measured using a video camera. The relative light units measured give, as a function of the substance concentration, a sigmoidal stimulation curve. The EC50 values are calculated using the computer programme GraphPad PRISM (Version 3.02).
(In general: Reporter assays use an easily measured gene product as a stand-in for the process of interest.)

EC50 data for eleven compounds are collected here from US8143411B2, “Substituted 6-phenylnicotinic acids and their use” (Bayer Animal Health GmbH, priority 2007, dated 2012).

Structures can show the parent of a compound that is named as a salt.

The term EC50 denotes the concentration giving half of the maximal effect. Read a low EC50 as greater potency. `Cc1ccc(-c2cc(C(F)(F)F)c(C(=O)O)c(CC(C)C)n2)cc1F` [Example 2, 6-(3-Fluoro-4-methylphenyl)-2-isobutyl-4-(trifluoromethyl)nicotinic acid sodium salt]: the EC50 was 11 nM. The same measure for `Cc1ccc(-c2cc(C(F)(F)F)c(C(=O)O)c(NC(C)C)n2)cc1F` [Example 7, 6-(3-Fluoro-4-methylphenyl)-2-(isopropylamino)-4-(trifluoromethyl)nicotinic acid]: 83 nM; for `O=C(O)c1c(C(F)(F)F)cc(-c2ccc(Cl)cc2)nc1NCC1CC1` [Example 22, 6-(4-Chlorophenyl)-2-[(cyclopropylmethyl)amino]-4-(trifluoromethyl)nicotinic acid]: 100 nM; for `CCOc1nc(-c2ccc(C)c(F)c2)cc(C(F)(F)F)c1C(=O)O` [Example 34, 2-Ethoxy-6-(3-fluoro-4-methylphenyl)-4-(trifluoromethyl)nicotinic acid]: 95 nM. The figure for `Cc1ccc(-c2cc(C(F)(F)F)c(C(=O)O)c(OC(C)C3CCCCC3)n2)cc1F` (centres unmarked) [Example 42, 2-(1-Cyclohexylethoxy)-6-(3-fluoro-4-methylphenyl)-4-(trifluoromethyl)nicotinic acid] is 120 nM; for `COCCN(C)c1nc(-c2ccc(C)c(F)c2)cc(C(F)(F)F)c1C(=O)O` [Example 47, 6-(3-Fluoro-4-methylphenyl)-2-[(2-methoxyethyl)(methyl)amino]-4-(trifluoromethyl)nicotinic acid hydrochloride] it is 180 nM; for `CC(C)CCOc1nc(-c2cc(F)cc(F)c2)cc(C(F)(F)F)c1C(=O)O` [Example 49, 6-(3,5-Difluorophenyl)-2-(3-methylbutoxy)-4-(trifluoromethyl)nicotinic acid] it is 42 nM.

`CCc1nc(-c2ccc(Cl)cc2)cc(CC(C)C)c1C(=O)O` [Example 51, 6-(4-Chlorophenyl)-2-ethyl-4-isobutyl-nicotinic acid] showed an EC50 of 24 nM.

Take `CC(C)(C)CCOc1nc(-c2ccc(Br)cc2)cc(C(F)(F)F)c1C(=O)O` [Example 67, 6-(4-Bromophenyl)-2-(3,3-dimethylbutoxy)-4-(trifluoromethyl)nicotinic acid]: the EC50 turned out to be 182 nM. The same measure for `CCOc1cc(-c2ccc(Cl)cc2)nc(C(C)C)c1C(=O)O` [Example 71, 6-(4-Chlorophenyl)-4-ethoxy-2-(1-methylethyl)nicotinic acid sodium salt]: 86 nM; for `CC(C)Cc1nc(-c2ccc(Cl)cc2)cc(C(F)(F)F)c1C(=O)O` [Example 77, 6-(4-Chlorophenyl)-2-isobutyl-4-(trifluoromethyl)nicotinic acid sodium salt]: 13 nM.
